The record followed here is the supplement of paper PMC10307832.

Holding throughout (assay): relative viability (nuclei count vs DMSO), 5 days (fraction); higher = more cells survive
Compound in assay [1]: C1CNCCC1C2=CC(=NN2)C3=CC=NC=C3 + CC(=O)Nc1cccc(-n2c(=O)n(C3CC3)c(=O)c3c(Nc4ccc(I)cc4F)n(C)c(=O)c(C)c32)c1 [Trametinib] (partner 0.02 µM)
Summed up:
(§1)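 Lung cancer cell lines in 1536-well plates were dosed by pin tool the day after seeding, either with one drug alone or with a fixed anchor-drug dose plus five library-drug doses (not always all listed) in √10 steps. After 5 days, cells were fixed and their nuclei stained in one step (final 0.05% Triton X-100, 1% formaldehyde, 1 ug/ml Hoechst), then counted on 4× images. Relative viability is the nuclei count in treated wells divided by that in vehicle wells. Values are medians of duplicate plates.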

Compound in assay [2]: C1CNCCC1C2=CC(=NN2)C3=CC=NC=C3 + CS(=O)(=O)N1CCN(Cc2cc3nc(-c4cccc5[nH]ncc45)nc(N4CCOCC4)c3s2)CC1 [Pictilisib] (partner 1 µM)
A digest of the protocol:
as §1

Compound in assay [3]: C[C@@H](N)c1ccc(C(=O)Nc2ccnc3[nH]ccc23)cc1 + Cc1nc(NC(=O)N2CCC[C@H]2C(N)=O)sc1-c1ccnc(C(C)(C)C(F)(F)F)c1 [Alpelisib] (partner 2 µM)
Summed up: as §1

Compound in the assay “Tanzisertib + Phenformin”: O[C@H]1CC[C@H](Nc2ncc3nc(Nc4c(F)cc(F)cc4F)n([C@H]4CCOC4)c3n2)CC1 [Tanzisertib] + N=C(N)NC(=N)NCCc1ccccc1 [Phenformin] (partner 250 µM)
Summed up: as §1

As for SW 1573, the relative viability in assay [1] (first compound 0.8 µM) stood at 0.6; in assay [1] (first compound 2.53 µM) it was 0.556; in assay [1] (first compound 8 µM), 0.622; in assay [2] (first compound 0.08 µM), 0.516; in assay [2] (first compound 0.8 µM), 0.533; in assay [2] (first compound 2.53 µM) it was 0.496. Moreover, the relative viability was found to be 0.509 in assay [2] (first compound 8 µM); 0.852 in assay [3] (first compound 0.04 µM); 0.984 in assay [3] (first compound 0.1265 µM); 0.832 in assay [3] (first compound 0.4 µM); 0.563 in assay [3] (first compound 1.265 µM); 0.509 in assay [3] (first compound 4 µM). Also, the relative viability in the assay with Tanzisertib + Phenformin (first compound 0.08 µM) was 0.457; with Tanzisertib + Phenformin (first compound 0.253 µM) it was 0.305; with Tanzisertib + Phenformin (first compound 0.8 µM), 0.347; with Tanzisertib + Phenformin (first compound 2.53 µM), 0.417; with Tanzisertib + Phenformin (first compound 8 µM), 0.356.
